The structures appear in SMILES notation. Some results are limits rather than exact numbers.

A short description of data set [1]: in vivo. The note with it: rat, iv, 1 mg/kg.
Description: Volume of distribution at steady state in rat at 1 mg/kg, iv
The nature of data set [2]: in vitro. Particulars: human, plasma.
Description: Plasma protein binding in human
A short description of data set [3]: in vivo. The note with it: rat, po, 1 mg/kg.
Data set [4] is described as follows: in vivo. Particulars: rat, iv, 1 mg/kg. The source holds these as a separate data set.
Description: Half life in rat at 1 mg/kg, iv
The nature of data set [5]: in vivo. The note with it: rat, po, 1 mg/kg. This is another data set of the same source.
The nature of data set [6]: in vitro. Particulars: rat, plasma.
Description: Plasma protein binding in rat
The next data set relates to NCI-H929. In words: cells. Particulars: Homo sapiens, NCI-H929, 24 h.
A short description of data set [7]: in vivo. The note with it: Sprague-Dawley, rat, iv, 10 mg/kg.
Description: Plasma concentration in anesthetized Sprague-Dawley rat upto 10 mg/kg, iv administered as single dose measured after 30 mins

Description for NCI-H929: Antiproliferative activity against human NCI-H929 cells assessed as reduction in cell viability incubated for 24 hrs by Cell-Titer Glo assay

The Vd is the apparent volume that relates the amount in the body to the concentration in plasma or blood. Lower therefore signals little distribution into tissue. The term fraction unbound denotes free concentration divided by total concentration. Read a low fraction unbound as little free substance. Usually AUC stands for concentration integrated over time. A higher AUC goes with more exposure. As a reminder, the half-life is the time in which the quantity being followed falls by half. A low value points to rapid decline. Usually bioavailability stands for dose-corrected exposure relative to a reference, in per cent. Regarding `COc1ccc(F)cc1-c1c(F)cnc2[nH]c(C3=CCN([C@H]4CC[C@@H](C(=O)O)CC4)CC3)cc12`, the Vd in the data set “in vivo [1]” was 2.6 L/kg. The fraction unbound in the data set “in vitro [2]” was 0.066; in “in vitro [6]”, 0.099. In the data set “in vivo [3]”, the exposure (AUC) was 140 ng·h/mL. In the data set “in vivo [4]”, this molecule gave a half-life of 3 h. Besides, in “in vivo [5]”, the bioavailability is 13%.
By IC50 is commonly meant the point on the concentration scale where inhibition reaches its midpoint. Turning to `COc1ccc(F)cc1-c1ccnc2[nH]c(C3=CCN(c4ccc(CC(=O)O)cc4)CC3)cc12`, in the data set on NCI-H929, the half-maximal inhibitory concentration (IC50) is over 10000 nM.
Regarding `COc1ccc(F)cc1-c1ccnc2[nH]c(C3=CCC(N[C@@H](C(=O)O)C(C)C)CC3)cc12` (some centres undefined), the distribution volume (Vd) in “in vivo [1]” is 1 L/kg. Further, the free fraction (fraction unbound) in the data set “in vitro [2]” is 0.023; in the data set “in vitro [6]” it was 0.057. In addition, the area under the curve (AUC) in the data set “in vivo [3]” was under 10 ng·h/mL. Moreover, the half-life in “in vivo [4]” is 0.68 h. Moreover, in the data set “in vivo [5]”, the bioavailability worked out at 0.2%.
On to `COc1ccc(F)cc1-c1ccnc2[nH]c(C3=CCN([C@H]4CC[C@@H](C(=O)O)CC4)CC3)cc12`, for which the distribution volume (Vd) in “in vivo [1]” was found to be 4.7 L/kg. In addition, the fraction unbound is 0.074 in the data set “in vitro [2]” and 0.16 in “in vitro [6]”. The AUC in the data set “in vivo [3]” is 160 ng·h/mL. Moreover, the half-life in the data set “in vivo [4]” was 3.2 h. Moreover, the bioavailability in “in vivo [5]” was 20%.
For `COc1ccc(F)cc1-c1ccnc2[nH]c(C3=CCC(N4CCC(C(=O)O)CC4)CC3)cc12` (centres undefined), in the data set with NCI-H929, the concentration for half-maximal inhibition (IC50) turned out to be 170 nM.
`COc1ccc(F)cc1-c1ccnc2[nH]c(C3=CCN([C@H]4CC[C@H](CC(=O)O)CC4)CC3)cc12` had a Vd in “in vivo [1]” of 4.5 L/kg. The fraction unbound was 0.037 in the data set “in vitro [2]” and 0.087 in “in vitro [6]”. The area under the curve (AUC) in the data set “in vivo [3]” turned out to be 160 ng·h/mL. Also, the half-life in “in vivo [4]” was 2.8 h. The molecule further registered a bioavailability in “in vivo [5]” of 21%.
The molecule `COc1ccc(F)cc1-c1c(F)cnc2[nH]c(C3=CCN([C@H]4CC[C@H](C(=O)O)CC4)CC3)cc12` showed a Vd in “in vivo [1]” of 2.7 L/kg. For the same molecule, the figures for the unbound share (fraction unbound) in “in vitro [2]” and in “in vitro [6]” were 0.059 and 0.106, respectively. In addition, the AUC in “in vivo [3]” came to 450 ng·h/mL. This molecule also gave a half-life in the data set “in vivo [4]” of 3.5 h. Also, the concentration at 0.5 h in “in vivo [7]” came to 9000 ng/mL. In the data set “in vivo [5]”, the bioavailability came out at 28%.
In the data set “in vivo [1]”, `COc1ccc(F)cc1-c1c(F)cnc2[nH]c(C3=CCN([C@H]4CC[C@H](CC(=O)O)CC4)CC3)cc12` registered a distribution volume (Vd) of 2.9 L/kg. The free fraction (fraction unbound) was 0.041 in “in vitro [2]” and 0.082 in “in vitro [6]”. The AUC in the data set “in vivo [3]” was 140 ng·h/mL. The molecule further showed a half-life in “in vivo [4]” of 2.8 h. The molecule further showed a bioavailability in “in vivo [5]” of 11%.
On to `COc1ccc(F)cc1-c1ccnc2[nH]c(C3=CCC(C(=O)O)CC3)cc12` (centres undefined), for which, in “in vivo [1]”, the Vd amounted to 0.51 L/kg. Besides, the fraction unbound in the data set “in vitro [2]” was 0.002; in the data set “in vitro [6]”, 0.004. The AUC in the data set “in vivo [3]” amounted to 3100 ng·h/mL. This molecule also had a half-life in “in vivo [4]” of 2.1 h. Further, in the data set “in vivo [5]”, the bioavailability is 70%.
For `COc1ccc(F)cc1-c1ccnc2[nH]c(C3=CCN([C@H]4CC[C@H](C(=O)O)CC4)CC3)cc12`, in the data set “in vivo [1]”, the distribution volume (Vd) came to 1.9 L/kg. The free fraction (fraction unbound) in the data set “in vitro [2]” is 0.079; in “in vitro [6]”, 0.09. Besides, the exposure (AUC) in “in vivo [3]” is 400 ng·h/mL. Also, in “in vivo [4]”, the half-life was 3.3 h. This molecule also had a concentration at 0.5 h in “in vivo [7]” of 5500 ng/mL. In the data set “in vivo [5]”, this molecule came in with a bioavailability of 23%.
`COc1ccc(F)cc1-c1ccnc2[nH]c(C3=CCN([C@H]4CC[C@@H](CC(=O)O)CC4)CC3)cc12`: the volume of distribution (Vd) in the data set “in vivo [1]” was found to be 3.4 L/kg. The fraction unbound in the data set “in vitro [2]” was 0.036; in the data set “in vitro [6]”, 0.183. For the same molecule, the AUC in the data set “in vivo [3]” was determined as 40 ng·h/mL. Also, the half-life in the data set “in vivo [4]” was 1.7 h. This molecule gave a bioavailability in the data set “in vivo [5]” of 7.9%.
As to `CCOC(=O)NS(=O)(=O)N1CC=C(c2cc3c(-c4cc(F)ccc4OC)ccnc3[nH]2)CC1`, in the data set “in vivo [1]”, the Vd was 0.29 L/kg. Besides, the results for the unbound share (fraction unbound) in the data set “in vitro [2]” and in “in vitro [6]” were under 0.001 and 0.042, respectively. The molecule further gave an AUC in “in vivo [3]” of 2400 ng·h/mL. Further, in the data set “in vivo [4]”, the half-life is 1.6 h. This molecule also yielded a bioavailability in the data set “in vivo [5]” of 64%.

Values taken from ChEMBL document CHEMBL4834469, “Balancing Properties with Carboxylates: A Lead Optimization Campaign for Selective and Orally Active CDK9 Inhibitors” (ACS Med Chem Lett, 2021).
